{"source": "patent US20200148617A1", "about": "“GEMCABENE, PHARMACEUTICALLY ACCEPTABLE SALTS THEREOF, COMPOSITIONS THEREOF AND METHODS OF USE THEREFOR” (GEMPHIRE THERAPEUTICS INC., priority 2017, published 2020)", "key": {"[1]": {"experiment": "Steady-state plasma gemcabene pharmacokinetics, 600 mg daily, healthy female subjects", "assay_type": "in vivo", "conditions": "human, oral", "procedure": "(§1) An open-label, two-sequence, cross-over study to assess the steady-state effects of gemcabene on the single-dose pharmacokinetics (PK) of oral contraceptive tablets in healthy female subjects was conducted with 300 mg tablets containing gemcabene calcium salt hydrate Crystal Form 1 having PSD90 of 52 μm (Tablet F).\n(§2) The population for this study was generally healthy, adult female subjects of childbearing potential (≥18 to ≤35 years of age). This population supports the overall objective of the study to evaluate the effect of 600 mg of gemcabene calcium salt hydrate Crystal Form 1 having PSD90 of 52 μm at steady-state on the PK of a single dose of ON 1/35 (Ortho Novum 1/35; combined ethinyl estradiol/norethindrone oral contraceptive). The primary objective of this study was to assess the effect of daily 600 mg of gemcabene calcium salt hydrate Crystal Form 1 having PSD90 of 52 μm at steady-state on the pharmacokinetics (PK) of ON 1/35. The secondary objectives of this study were to assess the safety and tolerability of daily gemcabene 600 mg in combination with a single-dose ON 1/35 and to assess the steady-state PK of 600 mg of gemcabene calcium salt hydrate Crystal Form 1 having PSD90 of 52 μm (Tablet F×2).\nGemcabene calcium salt hydrate Crystal Form 1 having PSD90 of 52 μm was administered orally as a single dose of 600 mg, given as two 300 mg tablets (300-mg Tablet F×2) (with 240 mL of water). Gemcabene calcium salt hydrate Crystal Form 1 having PSD90 of 52 μm (600 mg) was administered at the same time each day."}, "[2]": {"conditions": "female, human, in vivo", "procedure": "as §1\nas §2, with “F×2). […]” for “F×2).”"}, "[3]": {"experiment": "Steady-state pharmacokinetics of gemcabene at 300, 600, 900 mg/day in FH patients", "assay_type": "in vivo, human", "conditions": "for Cmax / AUC(0-t) / CL/F: mean", "procedure": "This was an open-label, dose-finding, 3-period, 3-treatment study using successively escalating doses of 300 mg, 600 mg, and 900 mg gemcabene calcium salt hydrate Crystal Form 1 having PSD90 of 52 μm in patients clinically diagnosed with familial hypercholesterolemia (FH). The treatment plan was for each of 8 patients to receive each of the successive doses, daily, for 4 weeks at a time with no interruption in gemcabene calcium salt hydrate Crystal Form 1 dosing between the dose levels. That is, the 8 FH patients were administered daily oral doses of gemcabene calcium salt hydrate Crystal Form 1 having PSD90 of 52 μm at 300 mg/day on Days 1-28, 600 mg/day on Days 29-56, and 900 mg/day on Days 57-84. Pharmacokinetic plasma samples were collected pre-dose and 0.5, 1, 2, 3, 5, and 12 hours post-dose on Day 28, Day 56, and Day 84. Additional (trough) samples were collected pre-dose on Day 14, Day 42, Day 70, and at the Early Termination Visit (if applicable). Plasma from these samples were analyzed for gemcabene concentrations and the data used for PK analysis. Plasma sample concentrations were available for pharmacokinetic analysis for all but 1 patient for whom no results were reported following the 900 mg dose on Day 84. Since there were no days off between dose levels, the starting plasma concentration for the 600 mg and 900 mg treatment periods was the steady state concentration for 300 mg and 600 mg, respectively.\nDuring Days 1-28, patients received one 300-mg strength tablet containing gemcabene calcium salt hydrate Crystal Form 1 having PSD90 of 52 μm (Tablet D); during the Days 29-56, patients received two 300-mg strength tablets (2× Tablet D); and during the Days 57-84, patients received three 300-mg strength tablets (3× Tablet D) per day.\nPK parameter estimates were derived by standard non-compartmental analysis methods using a validated installation of Phoenix® WinNonlin® version 6.4. The actual sampling times were used in the PK parameter calculations.\nAll plasma concentrations reported as missing were treated as missing. Steady state was assumed following QD administration for 28 days and therefore, plasma gemcabene concentrations at 24 hours post-dose were used as the pre-dose concentrations.\nThe following gemcabene PK parameters were calculated for each patient from the plasma concentration-time data:\nAUClast and AUC(0-24) were calculated by numeric integration using the trapezoidal rule with linear up and log down interpolation.\nThe criterion for dose proportionality is 95% CI around the slope containing the value “1”.\nThe individual patient and gemcabene concentration-time data are listed using the number of significant digits or decimal places provided by the bioanalytical lab and nominal sample times, and summarized descriptively in tabular formats by dose level, and visit (for trough samples)."}}, "note": "Like-named read-outs stand apart in the source and are kept apart here."}
{"smiles": "CC(C)(CCCCOCCCCC(C)(C)C(=O)O)C(=O)O", "note": "[gemcabene, 6-(5-carboxy-5-methyl-hexyloxy)-2,2-dimethyl-hexanoic acid]", "values": [{"measurement": "concentration at 6 day", "setting": "[1]; Day 6, Treatment B, read-out: mean plasma gemcabene trough concentration", "value": 98.8, "unit": "µg/mL"}, {"measurement": "concentration at 7 day", "setting": "[1]; Day 7, Treatment B, read-out: mean plasma gemcabene trough concentration", "value": 106, "unit": "µg/mL"}, {"measurement": "concentration at 8 day", "setting": "[1]; Day 8, Treatment B, read-out: mean plasma gemcabene trough concentration", "value": 104, "unit": "µg/mL"}, {"measurement": "Cmax", "setting": "[1]; steady state, read-out: mean Cmax,ss", "value": 178, "unit": "µg/mL"}, {"measurement": "subjects with drug-related TEAE (constipation)", "setting": "[2]", "value": 1, "unit": "subject"}, {"measurement": "dose proportionality of AUC(0-24)", "setting": "[3]; 300 mg/day to 900 mg/day", "value": "increased dose proportionally"}, {"measurement": "dose proportionality of Cmax", "setting": "[3]; 300 mg/day to 900 mg/day", "value": "slightly less than dose proportional"}, {"measurement": "Cmax", "setting": "[3]; human, oral, 300 mg/day (Tablet D), Day 28 steady state, FH patients, plasma, n=8", "value": 84.8, "unit": "µg/mL"}, {"measurement": "Cmax", "setting": "[3]; human, oral, 600 mg/day (2× Tablet D), Day 56 steady state, FH patients, plasma, n=8", "value": 149, "unit": "µg/mL"}, {"measurement": "Cmax", "setting": "[3]; human, oral, 900 mg/day (3× Tablet D), Day 84 steady state, FH patients, plasma, n=7", "value": 195, "unit": "µg/mL"}, {"measurement": "AUC(0-t)", "setting": "[3]; human, plasma, oral, 300 mg/day, 300 mg/day (Tablet D), steady state, FH patients, n=8, read-out: AUC0-24", "value": 1550, "unit": "µg·h/mL"}, {"measurement": "AUC(0-t)", "setting": "[3]; human, plasma, oral, 300 mg/day, 300 mg/day (Tablet D), steady state, FH patients, n=8, read-out: AUClast", "value": 1590, "unit": "µg·h/mL"}, {"measurement": "AUC(0-t)", "setting": "[3]; human, plasma, oral, 600 mg/day, 600 mg/day (2× Tablet D), steady state, FH patients, n=8, read-out: AUC0-24", "value": 2680, "unit": "µg·h/mL"}, {"measurement": "AUC(0-t)", "setting": "[3]; human, plasma, oral, 600 mg/day, 600 mg/day (2× Tablet D), steady state, FH patients, n=8, read-out: AUClast", "value": 2700, "unit": "µg·h/mL"}, {"measurement": "AUC(0-t)", "setting": "[3]; human, plasma, oral, 900 mg/day, 900 mg/day (3× Tablet D), steady state, FH patients, n=7, read-out: AUC0-24", "value": 3530, "unit": "µg·h/mL"}, {"measurement": "AUC(0-t)", "setting": "[3]; human, plasma, oral, 900 mg/day, 900 mg/day (3× Tablet D), steady state, FH patients, n=7, read-out: AUClast", "value": 3490, "unit": "µg·h/mL"}, {"measurement": "Tmax", "setting": "[3]; human, plasma, oral, 300 mg dose level, after 28 daily doses, min-max 1.0-2.0 h, read-out: Median Tmax", "value": 1.6, "unit": "h"}, {"measurement": "CL/F", "setting": "[3]; human, plasma, oral, 300 mg/day (Tablet D), steady state, FH patients, n=8", "value": 3.55, "unit": "mL/min"}, {"measurement": "Tmax", "setting": "[3]; human, plasma, oral, 300 mg/day (Tablet D), steady state, FH patients, median, n=8, read-out: Tmax", "value": 1.6, "unit": "h"}, {"measurement": "Tmax", "setting": "[3]; human, plasma, oral, 600 mg dose level, after 28 daily doses, min-max 0.93-3.0 h, read-out: Median Tmax", "value": 1.5, "unit": "h"}, {"measurement": "CL/F", "setting": "[3]; human, plasma, oral, 600 mg/day (2× Tablet D), steady state, FH patients, n=8", "value": 3.9, "unit": "mL/min"}, {"measurement": "Tmax", "setting": "[3]; human, plasma, oral, 600 mg/day (2× Tablet D), steady state, FH patients, median, n=8, read-out: Tmax", "value": 1.5, "unit": "h"}, {"measurement": "Tmax", "setting": "[3]; human, plasma, oral, 900 mg dose level, after 28 daily doses, min-max 0.98-3.0 h, read-out: Median Tmax", "value": 1.9, "unit": "h"}, {"measurement": "CL/F", "setting": "[3]; human, plasma, oral, 900 mg/day (3× Tablet D), steady state, FH patients, n=7", "value": 4.52, "unit": "mL/min"}, {"measurement": "Tmax", "setting": "[3]; human, plasma, oral, 900 mg/day (3× Tablet D), steady state, FH patients, median, n=7, read-out: Tmax", "value": 1.9, "unit": "h"}, {"measurement": "concentration at 14 day of the 900 mg/day period", "setting": "[3]; human, plasma, oral, 900 mg/day treatment period, Day 14, read-out: trough gemcabene plasma concentration, patient 006-003", "value": 122, "unit": "µg/mL"}, {"measurement": "concentration at 28 day of the 900 mg/day period", "setting": "[3]; human, plasma, oral, 900 mg/day treatment period, Day 28, read-out: trough gemcabene plasma concentration, patient 006-003", "value": 43.5, "unit": "µg/mL"}, {"measurement": "Tmax", "setting": "[3]; human, plasma, oral, 300 to 900 mg/day, read-out: median Tmax values across dose levels", "value": "1.5 to 1.9", "unit": "h"}]}
